The numbers were not newly measured in patent US11701318B2, “Process of dyeing keratinous material comprising the use of an organosilicon compound, an effect pigment, and a film-forming polymer I” (Henkel AG & Co. KGaA, priority 2019, dated 2023), which cites them from elsewhere.

For the data set the following is noted: 25° C.
With `CCN(Cc1cccc(S(=O)(=O)[O-])c1)c1ccc(C(=C2C=CC(=[N+](CC)Cc3cccc(S(=O)(=O)[O-])c3)C=C2)c2ccccc2S(=O)(=O)[O-])cc1.[Na+].[Na+]` [Acid Blue 9], the solubility in water entry is “more than 20 % by weight”.
`O=S(=O)([O-])c1ccc(N=Nc2c(O)ccc3ccccc23)cc1.[Na+]` [Acid Orange 7, sodium salt of 4-[(2-hydroxy-1-naphthyl)azo]benzene sulphonate]: the solubility in water entry is on record as “more than 7 g/L”.
Consider `Nc1cc(S(=O)(=O)[O-])cc2cc(S(=O)(=O)[O-])c(N=Nc3ccccc3)c(O)c12.[Na+].[Na+]` [Acid Red 33, disodium salt of 5-amino-4-hydroxy-3-(phenylazo)-naphthalene-2,7-disulphonate], for which the solubility in water was 2.5 mg/mL.
On to `O=C([O-])c1c(Cl)c(Cl)c(Cl)c(Cl)c1-c1c2c(Br)cc(=O)c(Br)c-2oc2c(Br)c(O)cc(Br)c12.O=C([O-])c1c(Cl)c(Cl)c(Cl)c(Cl)c1-c1c2c(Br)cc(=O)c(Br)c-2oc2c(Br)c(O)cc(Br)c12.[Na+].[Na+]` [Acid Red 92, disodium salt of 3,4,5,6-tetrachloro-2-(1,4,5,8-tetrabromo-6-hydroxy-3-oxoxanthen-9-yl)benzoic acid], for which the solubility in water entry is recorded as “greater than 10 g/L”.
Turning to `O=C([O-])C1=NN(c2ccc(S(=O)(=O)[O-])cc2)C(=O)C1N=Nc1ccc(S(=O)(=O)[O-])cc1.[Na+].[Na+].[Na+]` (stereo not drawn) [Acid Yellow 23, trisodium salt of 4,5-dihydro-5-oxo-1-(4-sulfophenyl)-4-((4-sulfophenyl)azo)-1H-pyrazole-3-carboxylic acid], the “solubility in water (in words)” value was “highly soluble in water”.
Turning to “mixture of the sodium salts of mono- and disulfonic acids of 2-(2-quinolyl)-1H-indene-1,3(2H)-dione [Acid Yellow 3]”, the solubility in water is 20 mg/mL.
